From patent US8951340B2, “Water-insoluble coloring matter compound, ink using the water-insoluble coloring matter compound, thermal transfer recording sheet and resist composition for color filter” (Canon Kabushiki Kaisha, priority 2011, dated 2015)
Read-outs that look alike come from different tables or passages of the source.

Assays:
[1] = Solubility in water of the compound at room temperature and at 60° C.; assay type: physicochemical; conditions: mass percentage
Excerpt: The water-insoluble coloring matter compound represented by the formula (1) according to the present invention has high affinity for an organic solvent. In the present invention, “water-insoluble” means that solubility in water is less than 1% in terms of mass percentage.

[2] = Evaluation of solubility of compound for solvent (30 mg in 0.7 mL, visually observed); assay type: physicochemical; conditions: organic solvent or mixture, thermodynamic from solid, room temperature, visual
Method: 30 mg of each of water-insoluble coloring matter compounds (1), (4), (6), (8) to (10), (14), (15), (20), and (21) and comparative compounds (1) to (3) was dissolved at room temperature in 0.7 mL of toluene, 0.7 mL of methanol, 0.7 mL of ethyl acetate, and 0.7 mL of chloroform, respectively. These solutions were visually observed, and the solubility of the compound for the solvent was evaluated.
A: completely dissolved (solubility is very good)
B: slightly suspended (solubility is good)
C: not dissolved at all (solubility is bad)

[3] = 30 mg in 0.7 mL chloroform, read-out: Solubility Chloroform
[4] = 30 mg in 0.7 mL ethyl acetate, read-out: Solubility Ethyl acetate
[5] = 30 mg in 0.7 mL methanol, read-out: Solubility Methanol
[6] = 30 mg in 0.7 mL toluene, read-out: Solubility Toluene

| solubility in water ([1]; 60° C.) | solubility in water ([1]; room temperature) | solubility [2, 3] [mg/mL] | solubility [2, 4] [mg/mL] | solubility [2, 5] [mg/mL] | solubility [2, 6] [mg/mL] | Compound |
| --- | --- | --- | --- | --- | --- | --- |
| less than 1% | less than 1% | – | – | – | – | CCCCNc1ccc2c3c1C(=O)c1ccccc1-c3c(C(=O)c1ccccc1)c(=O)n2CCCC [Compound (21)] |
| less than 1% | less than 1% | – | – | – | – | CCCCC(CC)CNc1ccc2c3c1C(=O)c1ccccc1-c3c(C(=O)c1ccccc1)c(=O)n2C (stereo not drawn) [Compound (14)] |
| less than 1% | less than 1% | – | – | – | – | CCCCC(CC)CNc1ccc2c3c1C(=O)c1ccccc1-c3c(C(=O)OCC)c(=O)n2CC(CC)CCCC (stereo not drawn) [Compound (9)] |
| – | – | < 42.9 | < 42.9 | < 42.9 | < 42.9 | CCCCn1c(=O)c(C(=O)c2ccccc2)c2c3c(c(Nc4ccc(C)cc4)ccc31)C(=O)c1ccccc1-2 [(3)] |
| less than 1% | less than 1% | – | – | – | – | CCCCOCCCNc1ccc2c3c1C(=O)c1ccccc1-c3c(C(=O)c1ccccc1)c(=O)n2CC(CC)CCCC (stereo not drawn) [Compound (10)] |
| less than 1% | less than 1% | – | – | – | – | CCCCC(CC)CNc1ccc2c3c1C(=O)c1ccccc1-c3c(C(=O)c1ccc(OC)cc1)c(=O)n2CCCC (stereo not drawn) [Compound (6)] |
| – | – | < 42.9 | < 42.9 | < 42.9 | < 42.9 | Cc1ccc(Nc2ccc3c4c(cc(=O)n3C)-c3ccccc3C(=O)c24)cc1 [(2)] |
| less than 1% | less than 1% | – | – | – | – | CCCCC(CC)Cn1c(=O)c(C(=O)c2ccccc2)c2c3c(c(NC4CCCCC4)ccc31)C(=O)c1ccccc1-2 (stereo not drawn) [Compound (15)] |
| less than 1% | less than 1% | – | – | – | – | CCCCC(CC)CNc1ccc2c3c1C(=O)c1ccccc1-c3c(C(C)=O)c(=O)n2CCCC (stereo not drawn) [Compound (1)] |
| – | – | < 42.9 | < 42.9 | < 42.9 | < 42.9 | Cn1c(=O)cc2c3c(c(Nc4ccccc4)ccc31)C(=O)c1ccccc1-2 [(1)] |
| less than 1% | less than 1% | – | – | – | – | CCCCC(CC)CNc1ccc2c3c1C(=O)c1ccccc1-c3c(C(=O)c1ccccc1)c(=O)n2CCCC (stereo not drawn) [Compound (4)] |
| less than 1% | less than 1% | – | – | – | – | CCCCC(CC)CNc1ccc2c3c1C(=O)c1ccccc1-c3c(C(=O)c1ccccc1)c(=O)n2CC(CC)CCCC (stereo not drawn) [Compound (8)] |
